# Entries after “also recorded” stand apart in the source; their conditions may differ.
# Key:
# intestinal sucrase = conditions: role: inhibitor; substrate sucrose; dietary supplement use; cited from earlier work
# Streptococcus mitis = assay: Relative quantity of Streptococcus mitis by metagenomic (16S rRNA) sequencing after L-arabinose treatment; assay type: cell-based; conditions: for relative quantity of Streptococcus mitis / increase of relative quantity of Streptococcus mitis: vs control; for increase of relative quantity of Streptococcus mitis: statistically increases
# From the text: (§1) The objective of the experiments is to evaluate the effect of L-arabinose at different concentrations on a bacterial pool mimicking the skin microbiota by quantification of the bacterial mix using metagenomic sequencing. Five different types of bacteria are obtained from ATCC®: Micrococcus luteus (Cat. No. 4698), Corynebacterium striatum (Cat. No. BAA-1293), Staphylococcus epidermidis (Cat. No. 12228), Acinetobacter baumannii (Cat. No. 19606) and Streptococcus mitis (Cat. No. NCIMB-13770). The bacteria are common skin bacteria, selected to roughly mimic the skin microbiota. The bacteria are grown on specific media, either solid media (Brain Heart Infusion (BHI) Agar from Condalab (Cat. No. 1048.00) or Trypticase Soy (TS) Agar from Condalab (Cat. No. 1068.00)) or on liquid media (either Brain Heart Infusion Broth from Condalab (Cat. No. 1400.00) or Trypticase Soy Broth from Condalab (Cat. No. 1224.00)). The bacteria culture is performed according to the ATCC instructions and adapted to the specific conditions of each bacterium: all bacteria are grown in BHI medium at 37° C. in an aerobic environment shaking at 120 rpm, except for Streptococcus mitis which requires an anaerobic environment, so without shaking and with paraffin oil from Sigma-Aldrich (Cat. No. 185812) above the medium to cut off contact with air.
# (§2) Growth kinetics are carried out for each bacterium to determine their different growth phases and in particular the time needed to reach the exponential phase. Aerobically growing bacteria are plated on solid medium and then a colony is inoculated into 10 mL of liquid medium. An OD at 600 nm is then taken at regular time intervals from T0, the inoculation time, to obtain a growth curve until reaching the stationary phase. Anaerobically growing bacteria are directly inoculated at 500 μL into 9.5 mL of medium.
# (§3) Bacteria are treated during 6 hours with L-arabinose, diluted in culture medium. L-Arabinose is first resuspended in culture medium at a concentration of 5%. The following dilutions are directly realized in culture medium at the following concentrations: 3.5%, 2%, 1% and 0.5%.
# (§4) Each bacterium from the mix is initially grown independently. Once the exponential phase starts, Corynebacterium striatum, Micrococcus luteus and Staphylococcus epidermidis are mixed and grown in the presence or not of the L-arabinose at different concentrations for 6 hours, before reaching the stationary phase. Acinetobacter baumannii and Streptococcus mitis are grown independently with the L-arabinose due to their specific nature (Biosafety Level 2 (BSL-2) bacteria and anaerobic growth for Streptococcus mitis) and pulled in the final mix. Then, the mix is centrifugated and sent to sequencing. Bacterial DNA is isolated, sequenced, and 16S rRNA sequences are matched to taxonomic databases.
# (§5) The statistical analysis for FIGS. 2-5 is performed using two-tailed unpaired T-test vs NT-NS (*p-value<0.05, **p-value<0.01, ***p-value<0.001).
# FIG. 5 depicts the relative quantity of Streptococcus mitis at different concentrations of L-arabinose. Relative Streptococcus mitis abundance is compared in all samples after metagenomic sequencing. Bacteria are treated with L-arabinose at 5 concentrations: 0.5%, 1%, 2%, 3.5% and 5%. Only the OTU identifying the Streptococcus mitis genera is represented.
# Micrococcus luteus = assay: Relative quantity of Micrococcus luteus by metagenomic (16S rRNA) sequencing after L-arabinose treatment; assay type: cell-based; conditions: 6 hours, vs control
# From the text: as §1, §2, §3, §4, §5
# FIG. 3 depicts the relative quantity of Micrococcus luteus at different concentrations of L-arabinose. Relative Micrococcus luteus abundance is compared in all samples after metagenomic sequencing. Bacteria are treated with L-arabinose at 5 concentrations: 0.5%, 1%, 2%, 3.5% and 5%. Only the OTU identifying the Micrococcus luteus genera is represented.
# [1] = test system: Staphylococcus epidermidis; assay: Relative quantity of Staphylococcus epidermidis by metagenomic (16S rRNA) sequencing after L-arabinose treatment; assay type: cell-based; conditions: 6 hours, vs control
# From the text: as §1, with “The bacteria culture is performed according to the ATCC instructions and adapted to the specific conditions of each bacterium: all bacteria are grown in BHI medium at 37° C. in an aerobic environment shaking at 120 rpm, except for Streptococcus mitis which requires an anaerobic environment, so without shaking and with paraffin oil from Sigma-Aldrich (Cat. No. 185812) above the medium to cut off contact with air.” left out
# FIG. 4 depicts the relative quantity of Staphylococcus epidermidis at different concentrations of L-arabinose. […]
# [2] = test system: bacterial pool mimicking the skin microbiota; assay: Relative quantity of bacteria in the skin microbiota mix by metagenomic sequencing; assay type: cell-based; conditions: 6 hours
# From the text: as §1, §2, §3, §4
# FIG. 6 depicts the relative quantity of bacteria in the skin microbiota mix at different concentrations of L-arabinose. Relative bacteria abundance is detected in all samples after metagenomic sequencing. The bacteria seeded in the mix are Micrococcus luteus, Corynebacterium striatum, Staphylococcus epidermidis, Acinetobacter baumannii and Streptococcus mitis. Bacteria are treated with L-arabinose at 5 concentrations: 0.5%, 1%, 2%, 3.5% and 5%. All the OTUs detected are sorted by genera to be able to differentiate all the bacteria present in every sample.
# Acinetobacter baumannii = assay: Relative quantity of Acinetobacter baumannii by metagenomic (16S rRNA) sequencing after L-arabinose treatment; assay type: cell-based
# From the text: as §1, §2, §3, §4
# FIG. 2 depicts the relative quantity of Acinetobacter baumannii at different concentrations of L-arabinose. Relative Acinetobacter baumannii abundance is compared in all samples after metagenomic sequencing. Bacteria are treated with L-arabinose at 5 concentrations: 0.5%, 1%, 2%, 3.5% and 5%. Only the OTU identifying the Acinetobacter baumannii genera is represented.
# as §5
# [3] = 0.5% to 5% L-arabinose, 6 hours
smiles,measurement,setting,value
O=C[C@H](O)[C@@H](O)[C@@H](O)CO [L-arabinose],inhibition of sucrose absorption by inhibiting intestinal sucrase,intestinal sucrase,ability to inhibit absorption of sucrose
same,relative quantity of Streptococcus mitis,"Streptococcus mitis; 0.5% L-arabinose, 6 hours",tends to decrease
same,effect on Streptococcus mitis (dose dependence),Streptococcus mitis; [3],dose-dependent effect
same,relative quantity of Streptococcus mitis,"Streptococcus mitis; 1% L-arabinose, 6 hours",tends to decrease
same,relative quantity of Streptococcus mitis,"Streptococcus mitis; 2% L-arabinose, 6 hours",the same than the control
same,increase of relative quantity of Streptococcus mitis,"Streptococcus mitis; 3.5% L-arabinose, 6 hours",more than 2 times
same,increase of relative quantity of Streptococcus mitis,"Streptococcus mitis; 5% L-arabinose, 6 hours",more than 2 times
same,effect on Streptococcus mitis,Streptococcus mitis; higher concentrations of L-arabinose (3.5% and 5%),promotes Streptococcus mitis
same,relative quantity of Micrococcus luteus,Micrococcus luteus; 0.5% L-arabinose,inhibit Micrococcus luteus; also recorded: statistically decreases
same,relative quantity of Micrococcus luteus,Micrococcus luteus; 1% L-arabinose,no statistically significant change
same,relative quantity of Micrococcus luteus,Micrococcus luteus; 2% L-arabinose,statistically significant increase
same,relative quantity of Micrococcus luteus,Micrococcus luteus; 3.5% L-arabinose,no statistically significant change
same,relative quantity of Micrococcus luteus,Micrococcus luteus; 5% L-arabinose,no statistically significant change
same,relative quantity of Staphylococcus epidermidis,[1]; 0.5% L-arabinose,tendency to decrease
same,relative quantity of Staphylococcus epidermidis,"[1]; other concentrations (1%, 2%, 3.5%, 5%) of L-arabinose",no statistical differences
same,relative quantity of bacteria in the skin microbiota mix,[2]; 0.5% L-arabinose,Acinetobacter baumannii is outgrowing the other bacteria
same,homeostasis of the skin microbiota,[2]; 1% L-arabinose,maintaining the homeostasis of skin microbiota; also recorded: safekeeping the homeostasis of the skin microbiota
same,difference of the bacterial mix compared to the NT-NS control,"[2]; 1% or 2% L-arabinose, vs NT-NS control",no significant difference
same,homeostasis of the skin microbiota,[2]; 2% L-arabinose,maintaining the homeostasis of skin microbiota; also recorded: safekeeping the homeostasis of the skin microbiota
same,relative quantity of bacteria in the skin microbiota mix,[2]; 3.5% L-arabinose,Streptococcus mitis is fast growing at the expense of Acinetobacter baumannii
same,relative quantity of bacteria in the skin microbiota mix,[2]; 5% L-arabinose,Streptococcus mitis is fast growing at the expense of Acinetobacter baumannii
same,effect on Acinetobacter baumannii,Acinetobacter baumannii; 0.5% L-arabinose,promotes Acinetobacter baumannii
same,increase of relative quantity of Acinetobacter baumannii compared to the NT-NS control,"Acinetobacter baumannii; 0.5% L-arabinose, 6 hours, vs NT-NS control",7%
same,effect on Acinetobacter baumannii (dose dependence),Acinetobacter baumannii; [3],dose-dependent effect
same,relative quantity of Acinetobacter baumannii,"Acinetobacter baumannii; 1% L-arabinose, 6 hours, vs NT-NS control",the same than the control
same,relative quantity of Acinetobacter baumannii,"Acinetobacter baumannii; 2% L-arabinose, 6 hours, vs NT-NS control",the same than the control
same,decrease of relative quantity of Acinetobacter baumannii compared to the NT-NS control,"Acinetobacter baumannii; 5% L-arabinose, 6 hours, vs NT-NS control, statistically decreases",up to 7%

# Source: patent publication US20260335344A1, “NOVEL FORMULATIONS AND USES” (DANSTAR FERMENT AG, priority 2022, published 2026)
